According to the supplement of paper PMC10307832:

Legend:
Assay in all cases: relative viability (nuclei count vs DMSO), 5 days (fraction); higher = more cells survive
Temozolomide + Alpelisib = compound: Cn1nnc2c(C(N)=O)ncn2c1=O [Temozolomide] + Cc1nc(NC(=O)N2CCC[C@H]2C(N)=O)sc1-c1ccnc(C(C)(C)C(F)(F)F)c1 [Alpelisib] (partner 2 µM)
Summary of the method: (§1)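 Relative viability is defined as nuclei in treated wells over nuclei in vehicle wells. Duplicate plates were run and medians reported. Lung cancer cell lines in 1536-well plates were dosed by pin tool one day after seeding, with one drug or with a fixed anchor-drug dose plus five library-drug doses (not always all listed) in √10 steps, and nuclei were counted after 5 days.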

[1] = compound: Cn1nnc2c(C(N)=O)ncn2c1=O [Temozolomide] + Cc1cc(Nc2cc(N3CCN(C)CC3)nc(Sc3ccc(NC(=O)C4CC4)cc3)n2)n[nH]1 [Tozasertib] (partner 0.1 µM)
Summary of the method: as §1

[2] = compound: Cn1nnc2c(C(N)=O)ncn2c1=O [Temozolomide] + N=C(N)NC(=N)NCCc1ccccc1 [Phenformin] (partner 250 µM)
Summary of the method: as §1

[3] = compound: Cn1nnc2c(C(N)=O)ncn2c1=O [Temozolomide] + CC(=O)c1c(C)c2cnc(Nc3ccc(N4CCNCC4)cn3)nc2n(C2CCCC2)c1=O [Palbociclib] (partner 0.5 µM)
Summary of the method: as §1

| Cell Line | relative viability (Temozolomide + Alpelisib; first compound 0.2 µM) | relative viability (Temozolomide + Alpelisib; first compound 0.6325 µM) | relative viability (Temozolomide + Alpelisib; first compound 2 µM) | relative viability (Temozolomide + Alpelisib; first compound 6.325 µM) | relative viability (Temozolomide + Alpelisib; first compound 20 µM) | relative viability ([1]; first compound 0.2 µM) | relative viability ([1]; first compound 0.6325 µM) | relative viability ([1]; first compound 2 µM) | relative viability ([1]; first compound 6.325 µM) | relative viability ([1]; first compound 20 µM) | relative viability ([2]; first compound 0.2 µM) | relative viability ([2]; first compound 0.6325 µM) | relative viability ([2]; first compound 2 µM) | relative viability ([2]; first compound 6.325 µM) | relative viability ([2]; first compound 20 µM) | relative viability ([3]; first compound 0.2 µM) | relative viability ([3]; first compound 0.6325 µM) | relative viability ([3]; first compound 2 µM) | relative viability ([3]; first compound 6.325 µM) | relative viability ([3]; first compound 20 µM) |
| --- | --- | --- | --- | --- | --- | --- | --- | --- | --- | --- | --- | --- | --- | --- | --- | --- | --- | --- | --- | --- |
| NCI-H2087 | 1.26 | 1.05 | 1.15 | 1.12 | 1.11 | 0.273 | 0.219 | 0.292 | 0.286 | 0.25 | 0.49 | 0.474 | 0.506 | 0.458 | 0.482 | 0.254 | 0.239 | 0.224 | 0.259 | 0.225 |
| NCI-H1944 | 0.654 | 0.808 | 0.946 | 0.786 | 0.624 | 0.241 | 0.273 | 0.327 | 0.284 | 0.257 | 0.219 | 0.183 | 0.233 | 0.19 | 0.2 | 0.335 | 0.341 | 0.345 | 0.341 | 0.298 |
| COR-L23 | 0.957 | 0.851 | 0.859 | 0.752 | 0.662 | 0.2 | 0.213 | 0.227 | 0.206 | 0.198 | 0.511 | 0.475 | 0.437 | 0.462 | 0.428 | 0.383 | 0.398 | 0.311 | 0.266 | 0.269 |
| NCI-H727 | 0.655 | 0.511 | 0.533 | 0.675 | 0.504 | 0.54 | 0.629 | 0.764 | 0.591 | 0.531 | 0.653 | 0.659 | 0.572 | 0.462 | 0.544 | – | 0.579 | 0.676 | 0.715 | 0.703 |
| HCC-78 | 0.232 | 0.343 | 0.348 | 0.356 | 0.284 | 0.282 | 0.487 | 0.497 | 0.493 | 0.425 | 0.701 | 0.755 | 0.713 | 0.656 | 0.751 | 0.474 | 0.475 | 0.458 | 0.473 | 0.487 |
| UMC-11 | 1.08 | 0.829 | 1.02 | 0.934 | 0.518 | 0.204 | 0.198 | 0.214 | 0.198 | 0.191 | 0.378 | 0.357 | 0.378 | 0.326 | 0.301 | 0.312 | 0.38 | 0.3 | 0.286 | 0.321 |
| NCI-H2023 | 0.544 | 0.608 | 0.531 | 0.624 | 0.596 | 0.427 | 0.361 | 0.344 | 0.359 | 0.403 | 0.431 | 0.442 | 0.467 | 0.401 | 0.449 | 0.407 | 0.377 | 0.377 | 0.379 | 0.346 |
| NCI-H1915 | 1.05 | 1.02 | 0.905 | 0.625 | 0.335 | 0.482 | 0.417 | 0.471 | 0.317 | 0.268 | 0.393 | 0.385 | 0.35 | 0.268 | 0.259 | 0.546 | 0.483 | 0.521 | 0.399 | 0.228 |
| PC-14 | 1.08 | 0.958 | 0.95 | 0.867 | 0.217 | 0.439 | 0.608 | 0.558 | 0.293 | 0.0992 | 0.498 | 0.686 | 0.519 | 0.31 | 0.105 | 0.706 | 0.515 | 0.472 | 0.527 | 0.415 |
| LCLC-97TM1 | 0.253 | 0.236 | 0.28 | 0.246 | 0.249 | 0.186 | 0.242 | 0.212 | 0.184 | 0.191 | 0.427 | 0.487 | 0.492 | 0.418 | 0.412 | 0.272 | 0.237 | 0.197 | 0.231 | 0.191 |
| LU99A | 0.619 | 0.49 | 0.5 | 0.489 | 0.56 | 0.259 | 0.262 | 0.275 | 0.259 | 0.303 | 0.983 | 0.8 | 0.865 | 0.68 | 0.803 | 0.447 | 0.42 | 0.472 | 0.387 | 0.388 |
| HCC-366 | 0.337 | 0.391 | 0.456 | 0.462 | 0.358 | 0.097 | 0.0983 | 0.148 | 0.0779 | 0.15 | 0.639 | 0.647 | 0.631 | 0.621 | 0.62 | 0.449 | 0.467 | 0.341 | 0.396 | 0.369 |
| NCI-H1395 | 1.15 | 1.07 | 1.13 | 1 | 1.06 | 0.726 | 0.692 | 0.813 | 0.677 | 0.705 | 0.458 | 0.428 | 0.494 | 0.435 | 0.461 | 0.532 | 0.62 | 0.663 | 0.616 | 0.535 |
| NCI-H2170 | – | 0.796 | 0.849 | 0.607 | 0.4 | – | 0.75 | 0.756 | 0.668 | 0.405 | – | 0.422 | 0.448 | 0.349 | 0.327 | – | 0.398 | 0.368 | 0.375 | 0.264 |
| HOP-62 | 1.18 | 1 | 0.896 | 0.847 | 0.814 | 0.534 | 0.418 | 0.367 | 0.376 | 0.348 | 0.939 | 0.642 | 0.818 | 0.657 | 0.717 | 0.545 | 0.488 | 0.473 | 0.375 | 0.447 |
| NCI-H322M | – | 0.81 | 0.803 | 0.747 | 0.609 | – | 0.508 | 0.484 | 0.546 | 0.4 | – | 0.821 | 0.811 | 0.769 | 0.574 | 0.451 | 0.483 | 0.465 | 0.441 | 0.414 |
| NCI-H661 | – | 0.618 | 0.759 | 0.714 | 0.545 | 0.351 | 0.351 | 0.352 | 0.362 | 0.337 | 0.252 | 0.277 | 0.247 | 0.279 | 0.27 | 0.344 | 0.393 | 0.437 | 0.411 | 0.402 |
| NCI-H650 | 1.18 | 1.19 | 1.13 | 1.12 | 1.06 | 0.704 | 0.771 | 0.735 | 0.681 | 0.804 | 0.547 | 0.443 | 0.403 | 0.404 | 0.423 | 0.373 | 0.328 | 0.319 | 0.329 | 0.314 |
